Laboratory results taken from the Deep4Chem optical property database.
Each block holds one compound with its values, some of them ahead of it.

Assay: photoluminescence quantum yield (fraction); solvent given as SMILES

Compound: COc1ccc(/C=C/C2=CC(/C=C/c3ccc(OC)cc3)=[N+]3C2=C(c2ccc(-c4ccc5ccccc5n4)s2)c2c(/C=C/c4ccc(OC)cc4)cc(/C=C/c4ccc(OC)cc4)n2[B-]3(F)F)cc1
photoluminescence quantum yield (in C1COCCO1): 0.36

Compound: [NH3+]c1cc([NH3+])cc(-c2[nH+]c3ccccc3s2)c1
photoluminescence quantum yield (in O): 0.008

Compound: Cc1ccc(C2=C3C=CC(c4ccccc4)=[N+]3[B-](F)(F)n3c(Cl)ccc32)cc1
photoluminescence quantum yield (in C1CCCCC1): 0.076
photoluminescence quantum yield (in C1CCOC1): 0.084
photoluminescence quantum yield (in C1COCCO1): 0.079
photoluminescence quantum yield (in CCOC(C)=O): 0.046
photoluminescence quantum yield (in CO): 0.037
photoluminescence quantum yield (in Cc1ccccc1): 0.13
photoluminescence quantum yield (in ClC(Cl)Cl): 0.095

Compound: COc1ccc(-c2ccc3c(c2)nnn3C[C@H](N)C(=O)O)cc1
photoluminescence quantum yield (in CO): 0.17

Compound: COCCOCCOCCOCC(COCCOCCOCCOC)Oc1cc(/C=C/c2ccc(/C=C(\C#N)C(=O)c3ccccc3)cc2)c(OC(COCCOCCOCCOC)COCCOCCOCCOC)cc1/C=C/c1ccc(/C=C(\C#N)C(=O)c2ccccc2)cc1
photoluminescence quantum yield (in ClCCl): 0.23

Compound: CCC1(CC)c2cc(N(c3ccccc3)c3ccccc3)ccc2-c2c1c1c(c3c2C(CC)(CC)c2cc(N(c4ccccc4)c4ccccc4)ccc2-3)C(CC)(CC)c2cc(N(c3ccccc3)c3ccccc3)ccc2-1
photoluminescence quantum yield (in C1CCOC1): 0.27

Compound: CCOC(=O)c1sc2nc3c(c(C#N)c2c1N)CCCCCC3
photoluminescence quantum yield (in c1ccccc1): 0.063

Compound: C(=C1c2ccccc2-c2ccccc21)c1ccc(C=C2c3ccccc3-c3ccccc32)cc1
photoluminescence quantum yield (in C1CCOC1): 0.0003

Compound: O=C1NC(c2ccccc2)=C/C1=C\c1ccccc1
photoluminescence quantum yield (in C1COCCO1): 0.012

Compound: COc1ccc(N(c2ccc(OC)cc2)c2ccc3ccc4c(B(c5c(C)cc(C)cc5C)c5c(C)cc(C)cc5C)ccc5ccc2c3c54)cc1
photoluminescence quantum yield (in C1CCOC1): 0.19
photoluminescence quantum yield (in CC(C)=O): 0.026
photoluminescence quantum yield (in CCCCCC): 1
photoluminescence quantum yield (in Cc1ccccc1): 0.85
photoluminescence quantum yield (in ClC(Cl)Cl): 0.67
photoluminescence quantum yield (in ClCCl): 0.21

Compound: Clc1ccc(/C=C(\c2ccccc2)c2nc3ccccc3o2)cc1
photoluminescence quantum yield (in CO): 0.002

Compound: CC1(C)c2ccccc2N(c2ccc(C(=O)/C=C(\O)c3ccc(N4c5ccccc5C(C)(C)c5ccccc54)cc3)cc2)c2ccccc21
photoluminescence quantum yield (in c1ccc2c(c1)c1ccccc1n2-c1ccc(-c2ccc(-n3c4ccccc4c4ccccc43)cc2)cc1): 0.86

Compound: Cc1ccccc1
photoluminescence quantum yield (in C1CCCCC1): 0.22

Compound: CCCCC1(CCCC)c2cc(C#Cc3ccc4ccc5cccc6ccc3c4c56)ccc2-c2ccc(N(c3ccccc3)c3ccccc3)cc21
photoluminescence quantum yield (in Cc1ccccc1): 0.72

Results, then the compound that gave them:

photoluminescence quantum yield (in C1CCOC1): 0.68
Compound: CN(C)c1ccc(-c2ccc(-c3cc(N4CCCCC4)c(C#N)c4c3-c3ccccc3CC4)cc2)cc1

photoluminescence quantum yield (in CCO): 0.35
photoluminescence quantum yield (in O): 0.48
Compound: CC/[NH+]=c1\cc2oc3cc(NCCNC(=O)C(NC(=O)OC(C)(C)C)C(C)C)c4ccccc4c3nc-2cc1C (stereo not drawn)

photoluminescence quantum yield (in ClCCl): 0.01
Compound: CCOC(=O)COc1ccc(/C=C/C2=C3C(C)=CC(C)=[N+]3[B-](F)(F)n3c2c2ccccc2c3-c2[nH]c(C)cc2C)cc1

photoluminescence quantum yield (in CCOC(C)=O): 0.45
Compound: CCn1c2ccccc2c2c(C#N)c3c(ccc4c3cnn4C)nc21

photoluminescence quantum yield (in CC#N): 0.38
photoluminescence quantum yield (in ClCCl): 0.385
Compound: COc1ccccc1-c1nc(-c2ccccc2)c2ccccn12

photoluminescence quantum yield (in C1CCCCC1): 0.89
photoluminescence quantum yield (in CC#N): 0.92
photoluminescence quantum yield (in CC(C)O): 0.91
photoluminescence quantum yield (in CO): 0.76
photoluminescence quantum yield (in CS(C)=O): 0.99
photoluminescence quantum yield (in ClC(Cl)Cl): 0.98
photoluminescence quantum yield (in c1ccccc1): 0.92
Compound: CN(C)c1ccc2nc(-c3ccc(C(=O)Nc4ccccc4)cc3)sc2c1

photoluminescence quantum yield (in ClCCl): 0.04
Compound: CCN(CC)c1ccc2c(-c3ccccc3C(=O)O)c3c([o+]c2c1)/C(=C/c1ccc(N(C)C)s1)CCC3

photoluminescence quantum yield (in CCO): 0.501
photoluminescence quantum yield (in ClCCl): 0.732
photoluminescence quantum yield (in O): 0.088
Compound: CCOC(=O)c1ccccc1-c1c2ccc(=[N+](CC)CC)cc-2oc2c1oc1cc(N)ccc12
